Measurements from ChEMBL document CHEMBL1133711 (J Med Chem, 2000).

Key:
[1] = target: 5-hydroxytryptamine receptor 6 (Homo sapiens, UniProt P50406); assay: Binding affinity for human 5-hydroxytryptamine 6 receptor expressed in HEK 293 human embryonic kidney cells, [3H]-lysergic acid diethylamide as radioligand; assay type: cell-based, HEK293
[2] = target: T1, 5-hydroxytryptamine receptor 3A (Homo sapiens, UniProt P46098); assay: Compound was evaluated for its binding affinity towards 5-hydroxytryptamine 3 receptor
T1 sequence (P46098 whole entry): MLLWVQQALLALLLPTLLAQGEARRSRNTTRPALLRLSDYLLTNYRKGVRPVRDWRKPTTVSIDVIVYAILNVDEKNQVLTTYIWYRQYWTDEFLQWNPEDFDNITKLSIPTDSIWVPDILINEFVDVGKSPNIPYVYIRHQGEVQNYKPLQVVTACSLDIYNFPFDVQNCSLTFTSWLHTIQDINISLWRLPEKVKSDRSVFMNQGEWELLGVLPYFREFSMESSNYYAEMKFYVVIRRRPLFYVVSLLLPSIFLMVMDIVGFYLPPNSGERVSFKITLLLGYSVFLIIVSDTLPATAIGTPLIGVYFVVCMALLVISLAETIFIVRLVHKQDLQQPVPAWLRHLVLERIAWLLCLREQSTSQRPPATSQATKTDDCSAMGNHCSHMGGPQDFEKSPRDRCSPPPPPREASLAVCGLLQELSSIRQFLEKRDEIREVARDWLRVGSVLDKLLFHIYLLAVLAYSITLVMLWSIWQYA

Sequence of 5-hydroxytryptamine receptor 6 (P50406 whole entry): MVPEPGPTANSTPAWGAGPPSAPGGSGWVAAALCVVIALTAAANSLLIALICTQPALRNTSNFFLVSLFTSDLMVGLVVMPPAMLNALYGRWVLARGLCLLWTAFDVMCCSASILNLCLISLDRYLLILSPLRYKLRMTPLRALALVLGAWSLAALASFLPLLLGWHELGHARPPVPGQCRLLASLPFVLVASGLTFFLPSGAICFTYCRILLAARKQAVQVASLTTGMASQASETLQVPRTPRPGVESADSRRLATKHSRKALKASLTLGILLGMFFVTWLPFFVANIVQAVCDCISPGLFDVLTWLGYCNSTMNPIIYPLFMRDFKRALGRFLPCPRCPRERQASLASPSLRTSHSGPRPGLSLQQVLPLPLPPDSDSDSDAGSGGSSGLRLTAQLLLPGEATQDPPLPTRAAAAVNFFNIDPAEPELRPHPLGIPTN

SMILES	Ki [1]	Ki [2]
COc1ccc2[nH]c(C)c(CCN(C)C)c2c1	80 nM	
CCCn1cc(CCN(C)C)c2cc(OC)ccc21	200 nM	
Cc1[nH]c2ccccc2c1CCN(C)C	300 nM	
COc1ccc2c(c1)c(CCN(C)C)cn2C	510 nM	
COc1ccc2c(c1)c(CCN(C)C)cn2C(C)C	130 nM	
COc1ccc2[nH]c(-c3ccccc3)c(CCN(C)C)c2c1	54 nM	
Cc1[nH]c2ccc(O)cc2c1CCN	46 nM	1200 nM
CCc1[nH]c2ccc(OC)cc2c1CCN(C)C	52 nM	
CCn1cc(CCN(C)C)c2cc(OC)ccc21	240 nM	
COc1ccc2[nH]c(C)c(CCN)c2c1	98 nM	> 10000 nM
